Experimental data as given in ChEMBL document CHEMBL1201862, “PubChem BioAssay data set” (2004).
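Grown in 96-well plates, cells were treated for 48 hours with each compound at five concentrations. Insufficient inhibition: endpoint recorded as highest concentration tested. GI50 is the concentration that inhibits growth by half.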 Activity calls are given as the source filed them. Rule as the data show it: active = GI50 up to about 1.1 µM and inactive = higher.

Columns and labels:
Experiment in all cases: NCI anticancer screen, dose series, 48 h
ACHN = system: ACHN
CCRF-CEM = system: CCRF-CEM
EKVX = system: EKVX
HCT-116 = system: HCT-116
HCT-15 = system: HCT-15
KM12 = system: KM12
M14 = system: M14
MOLT-4 = system: MOLT-4
NCI-H23 = system: NCI-H23
NCI/ADR-RES = system: NCI/ADR-RES
OVCAR-3 = system: OVCAR-3
OVCAR-8 = system: OVCAR-8
RPMI-8226 = system: RPMI-8226
SF-295 = system: SF-295
SK-OV-3 = system: SK-OV-3
SNB-19 = system: SNB-19
SNB-75 = system: SNB-75
TK-10 = system: TK-10
UACC-257 = system: UACC-257
UO-31 = system: UO-31

SMILES	GI50 (ACHN)	GI50 (CCRF-CEM)	GI50 (EKVX)	GI50 (HCT-116)	GI50 (HCT-15) [µM]	GI50 (KM12)	GI50 (M14)	GI50 (MOLT-4)	GI50 (NCI-H23)	GI50 (NCI/ADR-RES)	GI50 (OVCAR-3)	GI50 (OVCAR-8)	GI50 (RPMI-8226)	GI50 (SF-295)	GI50 (SK-OV-3)	GI50 (SNB-19)	GI50 (SNB-75)	GI50 (TK-10)	GI50 (UACC-257)	GI50 (UO-31)
CC(=O)C(CN1CCCCC1)C(c1ccccc1)c1c(O)c2ccccc2oc1=O (stereo not given)	> 100 µM (inactive)	> 100 µM (inactive)	> 100 µM (inactive)	> 100 µM (inactive)	> 100	> 100 µM (inactive)	> 100 µM (inactive)	> 100 µM (inactive)	> 100 µM (inactive)	> 100 µM (inactive)	> 100 µM (inactive)	> 100 µM (inactive)	> 100 µM (inactive)	> 100 µM (inactive)	> 100 µM (inactive)	> 100 µM (inactive)	> 100 µM (inactive)	> 100 µM (inactive)	> 100 µM (inactive)	> 100 µM (inactive)
C=C1CC(Cn2cc(Br)c(=O)[nH]c2=O)(c2ccc(Br)cc2)OC1=O (stereo not given)	3.66 µM (inactive)	0.614 µM (active)	17.9 µM (inactive)	1.36 µM (inactive)	1.83	4.02 µM (inactive)	1.59 µM (inactive)	1.79 µM (inactive)	3.81 µM (inactive)	2.59 µM (inactive)	3.34 µM (inactive)	15.3 µM (inactive)	0.331 µM (active)	12.1 µM (inactive)	12.2 µM (inactive)	15.8 µM (inactive)	13.2 µM (inactive)	7.23 µM (inactive)	1.82 µM (inactive)	14.1 µM (inactive)
O=c1c(C(c2ccc(OCc3ccccc3)cc2)c2c(O)oc3ccccc3c2=O)c(O)oc2ccccc12	23.4 µM (inactive)	38.2 µM (inactive)	39 µM (inactive)	36.8 µM (inactive)	41.7	29.6 µM (inactive)	48.1 µM (inactive)	37.3 µM (inactive)	35.7 µM (inactive)	34.2 µM (inactive)	63.8 µM (inactive)	33.4 µM (inactive)	43.1 µM (inactive)	61.2 µM (inactive)	50.5 µM (inactive)	40.6 µM (inactive)	18.6 µM (inactive)	62.1 µM (inactive)	78.9 µM (inactive)	19 µM (inactive)
